The source of these data is patent US9255090B2, “Heterocyclyl derivatives and their use as prostaglandin D2 receptor modulators” (Actelion Pharmaceuticals Ltd., priority 2012, dated 2016).

This test concerns the target hCRTH2 receptor (Homo sapiens (Human), UniProt Q9Y5Y4). The experiment in a line: hCRTH2 receptor membranes radioligand (3H-PGD2) displacement assay. In kind it is binding. To be noted: 3H-PGD2 radioligand displacement, HEK293-hCRTH2 membranes. Put shortly:
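Compound was first mixed with buffer, then 3H-PGD2 was added at 2.5 nM, and the reaction was started with hCRTH2 membranes from HEK293 cells at 20 μg/well. After 90 min at room temperature, mixtures were filtered and washed with ice-cold buffer, and retained radioactivity was counted.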
On the technique in general: Displacement assays read how much labelled ligand stays bound in the presence of the test substance.

Chain of hCRTH2 receptor (Q9Y5Y4 whole entry): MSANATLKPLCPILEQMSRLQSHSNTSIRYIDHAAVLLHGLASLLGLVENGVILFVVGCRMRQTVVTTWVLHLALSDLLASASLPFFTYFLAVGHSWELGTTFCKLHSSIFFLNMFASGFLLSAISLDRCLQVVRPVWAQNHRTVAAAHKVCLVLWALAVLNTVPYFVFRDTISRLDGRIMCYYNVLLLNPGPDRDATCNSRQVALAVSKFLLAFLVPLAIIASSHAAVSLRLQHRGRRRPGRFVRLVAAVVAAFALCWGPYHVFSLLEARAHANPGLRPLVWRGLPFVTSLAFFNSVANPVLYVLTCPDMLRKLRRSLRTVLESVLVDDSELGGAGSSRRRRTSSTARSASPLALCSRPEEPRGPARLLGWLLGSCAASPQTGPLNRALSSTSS

The term IC50 denotes the concentration needed to halve the response being measured. Read a high IC50 as weaker potency in that assay. For `COc1ccc(CC(=O)O)cc1-c1ccc(F)c2c1CN(C(=O)C1C(C)(C)C1(C)C)CC2` [Example 50, {3-[5-Fluoro-2-(2,2,3,3-tetramethyl-cyclopropanecarbonyl)-1,2,3,4-tetrahydro-isoquinolin-8-yl]-4-methoxy-phenyl}-acetic acid], the 50% inhibitory concentration (IC50) was 0.267 µM.

In turn, `COc1ccc(CC(=O)O)cc1-c1ccc(F)c2c1CN(C(=O)C1Cc3ccccc3CO1)CC2` (racemic) [Example 274] came in with an IC50 of 0.0582 µM.

`COc1ccc(CC(=O)O)cc1-c1ccc(F)c2c1CN(C(=O)CC1(O)CCCCC1)CC2` [Example 128, (3-{5-Fluoro-2-[2-(1-hydroxy-cyclohexyl)-acetyl]-1,2,3,4-tetrahydro-isoquinolin-8-yl}-4-methoxy-phenyl)-acetic acid]: the IC50 was found to be 0.538 µM.

For the compound `O=C(O)COc1ccc(-c2ccc(F)c3c2CN(C(=O)OCc2ccccc2)CC3)cc1` [Example 172, 8-(4-Carboxymethoxy-phenyl)-5-fluoro-3,4-dihydro-1H-isoquinoline-2-carboxylic acid benzyl ester], the concentration for half-maximal inhibition (IC50) was 0.209 µM.

For the compound `O=C(O)Cc1cc(-c2ccc(F)c3c2CN(C(=O)OCc2ccccc2)CC3)ccc1F` [Example 12, 8-(3-Carboxymethyl-4-fluoro-phenyl)-5-fluoro-3,4-dihydro-1H-isoquinoline-2-carboxylic acid benzyl ester], the IC50 stood at 0.0218 µM.

In turn, `CCOc1ccc(CC(=O)O)cc1-c1ccc(F)c2c1CN(C(=O)CC1CC(C)(C)Oc3ncccc31)CC2` (racemic) [Example 284] yielded an IC50 of 0.0024 µM.

In turn, `CCOc1cc(CC(=O)O)ccc1-c1ccc(F)c2c1CN(C(=O)OCc1ccnn1C)CC2` [Example 388, 8-(4-Carboxymethyl-2-ethoxy-phenyl)-5-fluoro-3,4-dihydro-1H-isoquinoline-2-carboxylic acid 2-methyl-2H-pyrazol-3-ylmethyl ester] gave an IC50 of 0.0038 µM.

On to `COc1ccc(C(C)C(=O)O)cc1-c1ccc(F)c2c1CN(C(=O)OCc1ccccc1F)CC2` (racemic) [Example 140, (±)-8-[5-(1-Carboxy-ethyl)-2-methoxy-phenyl]-5-fluoro-3,4-dihydro-1H-isoquinoline-2-carboxylic acid 2-fluoro-benzyl ester], for which the half-maximal inhibitory concentration (IC50) was 0.0626 µM.

For the compound `O=C(O)Cc1ccc(OCC(F)(F)F)c(-c2ccc(F)c3c2CN(C(=O)[C@@H]2C[C@H]2c2ccccc2)CC3)c1` [Example 426, [3-[5-Fluoro-2-((1R,2R)-2-phenyl-cyclopropanecarbonyl)-1,2,3,4-tetrahydro-isoquinolin-8-yl]-4-(2,2,2-trifluoro-ethoxy)-phenyl]-acetic acid], the half-inhibitory concentration (IC50) turned out to be 0.0019 µM.

`COc1ccc(CC(=O)O)cc1-c1ccc(F)c2c1CN(C(=O)C1CCc3ccccc31)CC2` (racemic) [Example 112, (±)-{3-[5-Fluoro-2-(indane-1-carbonyl)-1,2,3,4-tetrahydro-isoquinolin-8-yl]-4-methoxy-phenyl}-acetic acid] returned an IC50 of 0.202 µM.

Compound `COc1ccc(C(C)C(=O)O)cc1-c1ccc(F)c2c1CN(C(=O)[C@@H]1C[C@H]1c1ccccc1)CC2` (mixture of isomers) [Example 120, (±)-2-{3-[5-Fluoro-2-((1R,2R)-2-phenyl-cyclopropanecarbonyl)-1,2,3,4-tetrahydro-isoquinolin-8-yl]-4-methoxy-phenyl}-propionic acid] showed an IC50 of 0.00856 µM.

Consider `CCOc1ccc(CC(=O)O)cc1-c1ccc(F)c2c1CN(C(=O)OCC=C(C)C)CC2` [Example 375, 8-(5-Carboxymethyl-2-ethoxy-phenyl)-5-fluoro-3,4-dihydro-1H-isoquinoline-2-carboxylic acid 3-methyl-but-2-enyl ester], for which the concentration for half-maximal inhibition (IC50) was 0.0087 µM.

Consider `O=C(O)Cc1ccc(F)c(-c2cccc3c2CN(C(=O)OCc2ccccc2)CC3)c1` [Example 23, 8-(5-Carboxymethyl-2-fluoro-phenyl)-3,4-dihydro-1H-isoquinoline-2-carboxylic acid benzyl ester], for which the IC50 is 0.192 µM.

Compound `O=C(O)COc1ccc(Cl)c(-c2ccc(C(F)(F)F)c3c2CN(C(=O)OCc2ccccc2)CC3)c1` [Example 180, 8-(5-Carboxymethoxy-2-chloro-phenyl)-5-trifluoromethyl-3,4-dihydro-1H-isoquinoline-2-carboxylic acid benzyl ester] returned an IC50 of 0.208 µM.

Regarding `CCOc1ccc(CC(=O)O)cc1-c1ccc(F)c2c1CN(C(=O)OCC(C)CC)CC2` (racemic) [Example 380], the half-inhibitory concentration (IC50) was 0.0042 µM.

The compound `COc1ccc(CC(=O)O)cc1-c1ccc(Cl)c2c1CN(C(=O)[C@@H]1C[C@H]1c1ccc(Cl)cc1)CC2` [Example 68, (3-{5-Chloro-2-[(1R,2R)-2-(4-chloro-phenyl)-cyclopropanecarbonyl]-1,2,3,4-tetrahydro-isoquinolin-8-yl}-4-methoxy-phenyl)-acetic acid] gave an IC50 of 0.00375 µM.

For the compound `CC(C)Oc1ccc(CC(=O)O)cc1-c1ccc(F)c2c1CN(C(=O)CC1OCCc3ccccc31)CC2` (racemic) [Example 297], the IC50 was determined as 0.0019 µM.

For `CCOc1cc(CC(=O)O)ccc1-c1ccc(F)c2c1CN(C(=O)NCc1cccc(F)c1)CC2` [Example 441, {3-Ethoxy-4-[5-fluoro-2-(3-fluoro-benzylcarbamoyl)-1,2,3,4-tetrahydro-isoquinolin-8-yl]-phenyl}-acetic acid], the IC50 amounted to 0.0175 µM.

For the compound `CCOc1ccc(CC(=O)O)cc1-c1ccc(F)c2c1CN(C(=O)[C@@H]1C[C@H]1c1ccccc1)CC2` [Example 220, {4-Ethoxy-3-[5-fluoro-2-((1R,2R)-2-phenyl-cyclopropanecarbonyl)-1,2,3,4-tetrahydro-isoquinolin-8-yl]-phenyl}-acetic acid], the IC50 is 0.0135 µM.

Compound `CCOc1cc(CC(=O)O)ccc1-c1ccc(F)c2c1CN(C(=O)CCc1ccccc1F)CC2` [Example 317, (3-Ethoxy-4-{5-fluoro-2-[3-(2-fluoro-phenyl)-propionyl]-1,2,3,4-tetrahydro-isoquinolin-8-yl}-phenyl)-acetic acid] registered an IC50 of 0.0017 µM.

Compound `COc1cc(CC(=O)O)cc(-c2ccc(F)c3c2CN(C(=O)OCc2ccccc2)CC3)c1` [Example 15, 8-(3-Carboxymethyl-5-methoxy-phenyl)-5-fluoro-3,4-dihydro-1H-isoquinoline-2-carboxylic acid benzyl ester] yielded an IC50 of 0.0185 µM.

As for `COc1ccc2[nH]cc(CCC(=O)N3CCc4c(F)ccc(-c5cc(CC(=O)O)ccc5OC)c4C3)c2c1` [Example 63, (3-{5-Fluoro-2-[3-(5-methoxy-1H-indol-3-yl)-propionyl]-1,2,3,4-tetrahydro-isoquinolin-8-yl}-4-methoxy-phenyl)-acetic acid], the IC50 was 0.0295 µM.

`COc1ccc(CC(=O)O)cc1-c1ccc(F)c2c1CN(C(=O)NCc1ccccc1)CC2` [Example 136, [3-(2-Benzylcarbamoyl-5-fluoro-1,2,3,4-tetrahydro-isoquinolin-8-yl)-4-methoxy-phenyl]-acetic acid] registered an IC50 of 0.0306 µM.

On to `COc1ccc(CC(=O)O)cc1-c1ccc(F)c2c1CN(C(=O)COc1ccc(F)cc1)CC2` [Example 44, (3-{5-Fluoro-2-[2-(4-fluoro-phenoxy)-acetyl]-1,2,3,4-tetrahydro-isoquinolin-8-yl}-4-methoxy-phenyl)-acetic acid], for which the IC50 worked out at 0.0591 µM.

For the compound `COc1ccc(CC(=O)O)cc1-c1ccc(F)c2c1CN(C(=O)[C@@H]1C[C@H]1c1ccc(Cl)cc1)CC2` [Example 64, (3-{2-[(1R,2R)-2-(4-Chloro-phenyl)-cyclopropanecarbonyl]-5-fluoro-1,2,3,4-tetrahydro-isoquinolin-8-yl}-4-methoxy-phenyl)-acetic acid], the IC50 is 0.00112 µM.

Consider `O=C(O)COc1ccc(Cl)cc1-c1ccc(F)c2c1CN(C(=O)OCc1ccccc1)CC2` [Example 145, 8-(2-Carboxymethoxy-5-chloro-phenyl)-5-fluoro-3,4-dihydro-1H-isoquinoline-2-carboxylic acid benzyl ester], for which the IC50 was found to be 0.43 µM.

For `CCC(CC(=O)N1CCc2c(F)ccc(-c3cc(CC(=O)O)ccc3OC)c2C1)c1ccccc1` (racemic) [Example 268], the IC50 worked out at 0.0636 µM.

For `CCOc1cc(CC(=O)O)ccc1-c1ccc(F)c2c1CN(C(=O)CC1CCOc3cc(F)ccc31)CC2` (racemic) [Example 327], the IC50 is 0.0002 µM.

The compound `CCOc1cc(CC(=O)O)ccc1-c1ccc(F)c2c1CN(C(=O)CC(C)c1cccc(C)n1)CC2` (racemic) [Example 320] yielded a half-maximal inhibitory concentration (IC50) of 0.0117 µM.

`COc1ccc(CC(=O)O)cc1-c1ccc(F)c2c1CCN(C(=O)OCc1ccccc1)CC2` [Example 17, 6-(5-Carboxymethyl-2-methoxy-phenyl)-9-fluoro-1,2,4,5-tetrahydro-benzo[d]azepine-3-carboxylic acid benzyl ester] gave an IC50 of 0.141 µM.

In turn, `COc1ccc(CC(=O)O)cc1-c1c(F)ccc2c1CN(C(=O)[C@@H]1C[C@H]1c1ccccc1)CC2` [Example 35, {3-[7-Fluoro-2-((1R,2R)-2-phenyl-cyclopropanecarbonyl)-1,2,3,4-tetrahydro-isoquinolin-8-yl]-4-methoxy-phenyl}-acetic acid] registered an IC50 of 0.00319 µM.

For `O=C(O)COc1ccc(Cl)c(-c2ccc(F)c3c2CN(C(=O)OCc2ccccc2)CC3)c1` [Example 176, 8-(5-Carboxymethoxy-2-chloro-phenyl)-5-fluoro-3,4-dihydro-1H-isoquinoline-2-carboxylic acid benzyl ester], the IC50 turned out to be 0.0136 µM.

In turn, `CCOc1cc(CC(=O)O)ccc1-c1ccc(F)c2c1CN(C(=O)/C=C/c1ccccn1)CC2` [Example 338, {3-Ethoxy-4-[5-fluoro-2-((E)-3-pyridin-2-yl-acryloyl)-1,2,3,4-tetrahydro-isoquinolin-8-yl]-phenyl}-acetic acid] came in with an IC50 of 0.0023 µM.

Compound `COc1ccc(CC(=O)O)cc1-c1ccc(F)c2c1CCN(C(=O)COCc1ccccc1Cl)C2` [Example 103, (3-{2-[2-(2-Chloro-benzyloxy)-acetyl]-8-fluoro-1,2,3,4-tetrahydro-isoquinolin-5-yl}-4-methoxy-phenyl)-acetic acid] registered a 50% inhibitory concentration (IC50) of 0.0692 µM.
